The values below come from publication PMC5835975, “[^64Cu]NOTA-pentixather enables high resolution PET imaging of CXCR4 expression in a preclinical lymphoma model” (EJNMMI Radiopharmacy and Chemistry, 2017).

Where two headings read alike, the source gives them in different places. Where a SMILES comes first, the peptide text is derived from it. Side-chain parts run from the residue outwards. [ ]: non-standard residue; d: D form. The star is where a group is joined. NODAGA = O=C(O)CN1CCN(CC(=O)O)CCN(C(CCC(=O)*)C(=O)O)CC1; NOTA = O=C(O)CN1CCN(CC(=O)O)CCN(CC(=O)*)CC1; dTyr(3-I) = N[C@H](Cc1ccc(O)c(I)c1)C(=O)O; 2Nal = N[C@@H](Cc1ccc2ccccc2c1)C(=O)O; dNMeOrn = CN[C@H](CCCN)C(=O)O; 4Amb = NCc1ccc(C(=O)O)cc1

For one data set, the target named is T1, human CXCR4 (Homo sapiens, UniProt P61073).
T1 construct: CXCR4-expressing Jurkat T-lymphocytes (4 × 10^5 cells per sample); endogenous in cells; host or cells: Jurkat T-cell leukemia cells
T1 sequence (P61073 whole entry): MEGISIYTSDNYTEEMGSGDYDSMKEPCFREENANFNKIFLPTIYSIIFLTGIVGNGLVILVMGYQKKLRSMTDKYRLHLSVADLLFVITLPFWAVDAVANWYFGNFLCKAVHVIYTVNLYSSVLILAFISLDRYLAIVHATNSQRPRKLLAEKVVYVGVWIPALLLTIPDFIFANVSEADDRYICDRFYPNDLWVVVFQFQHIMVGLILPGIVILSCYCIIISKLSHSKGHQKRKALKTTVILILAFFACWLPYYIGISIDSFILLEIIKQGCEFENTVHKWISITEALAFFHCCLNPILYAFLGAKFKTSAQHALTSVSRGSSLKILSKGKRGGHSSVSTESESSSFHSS
As to the kind of experiment: Competitive binding assay on Jurkat T-cell leukemia cells with [^125I]FC131 as radioligand. As to conditions: Jurkat cells 400.000 cells/sample, [^125I]FC131 radioligand, mean ± SD, min. three determinations. As for the experimental part:
The CXCR4 affinities of [^natCu]NOTA- and [^natCu]NODAGA-pentixather as well as of the corresponding metal free chelator-conjugated peptides were determined in a competitive binding assay using standard conditions (CXCR4-expressing Jurkat T-lymphocytes (4 × 10^5 cells per sample) and [^125I]FC131 as the radioligand (Poschenrieder et al. [2016a]; Wester et al. [2015]; Schottelius et al. [2015]; Poschenrieder et al. [2016b])) (Table 1). Data for [^natGa]pentixafor and FC131 are included as a reference. As already observed for [^natGa]pentixafor, metal complexation leads to enhanced CXCR4 affinity, both for [^natCu]NOTA-pentixather and for [^natCu]NODAGA-pentixather.
CXCR4 affinities were determined using Jurkat T-cell leukemia cells and [^125I]FC131 as the radioligand (Poschenrieder et al. [2016b]). Briefly, cells (4 × 10^5 cells per vial) were incubated with app. 0.1 nM of [^125I]FC131 in the presence of varying concentrations (10^−11 to 10^−5 M) of the respective peptide of interest (n = 3 samples/concentration) for 120 min at RT. After centrifugation and repeated washing steps, the amount of free and bound radioligand were quantified for each sample using a γ-counter, and IC50 values were calculated using GraphPad Prism 6.01 software.

The format of data set [1] is physicochemical. As to conditions: pH 7.4. The method, then: The lipophilicity and serum stability of [^64Cu]NOTA-pentixather were determined as described previously (Poschenrieder et al. [2016a]). Briefly, to a solution of app. 2 kBq of radiolabelled peptide in 500 μL of PBS (pH 7.4), 500 μL of octanol were added (n = 6). Vials were vortexed vigorously for 3 min. To achieve quantitative phase separation, the vials were centrifuged at 14,600 · g for 6 min in a Biofuge 15 (Heraeus Sepatech, Osterode, Germany). The activity concentrations in 100 μL samples of both the aqueous and the organic phase were measured in a gamma counter, and the log Pow was calculated.

On the set-up of data set [2]: species or system mice. As to conditions: mouse, in vivo, iv. As for the experimental part:
(§1) Biodistribution data of [^64Cu]NOTA-pentixather at 1.5 h p.i. (n = 5, black bars) and 24 h p.i. Given the fact that Jurkat cells, which are generally used for the determination of CXCR4 affinity, are not tumorigenic in mice and to ensure comparability of data with previous studies (Poschenrieder et al. [2016a]; Wester et al. [2015]; Schottelius et al. [2015]), the Daudi lymphoma model was also used in this study. […] While the tumor-to-background ratios for most tissues remain unchanged or decrease within the observation period, t/blood and t/intestine ratios increase 1.3 and 2.4 fold between 1.5 and 24 h p.i., respectively.
(§2) Fig. 3 Biodistribution of [^64Cu]NOTA-pentixather at 1.5 h (tracer only, black bars, n = 5) and 24 h p.i. (grey bars, n = 6) in Daudi xenograft-bearing CB-17 SCID mice. Mice were injected with 5.2 MBq [^64Cu]NOTA-pentixather (122 pmol/0.160 μg peptide; AS = 43 GBq/μmol). Non-specific tracer accumulation was determined by coinjection of 2 mg/kg AMD3100 (50 μg/mouse; white bars, n = 3)
(§3) For PET and biodistribution studies, an average of 5.2 MBq [^64Cu]NOTA-pentixather (200 μL in PBS, 122 pmol, 160 ng) with a SA of 43 GBq/μmol was injected intravenously into the tail vein of isofluorane anaesthesized female Daudi (human B-cell lymphoma) xenograft bearing CB17 SCID mice. […] PET imaging with [^64Cu]NOTA-pentixather under ‘tracer only’ (n = 2) as well as blocking conditions (coinjection of 2 mg/kg AMD3100, n = 1) was performed at three different time points (dynamic PET imaging for 1 h, followed by static image acquisition for 15 min after 3.5 and 24 h) using an Inveon Siemens μPET scanner. PET/CT images were reconstructed by a two-dimensional ordered subset expectation maximum (2D-OSEM) algorithm with no attenuation correction. Image analysis was performed using the Inveon software, and results were calculated as %ID/g. For biodistribution studies, the mice were sacrificed at 1.5 h (n = 5) and 24 h (n = 6) p.i., tissues and organs of interest were dissected, weighed, and counted for radioactivity in a γ-counter. The percentage of injected dose per gram of tissue (% ID/g) was calculated; data are presented as mean ± SD.

The subject of data set [3] is Daudi xenograft-bearing CB-17 SCID mice. As to conditions: mouse, in vivo. The method, then: as §1, §2, §3
Data set [4] is classed as physicochemical. As to conditions: buffer, 24 h, pH 2.5. As for the experimental part:
To investigate the in vitro stability of [^64Cu]NOTA-pentixather, the tracer was incubated both in human serum at 37 °C and in 0.1 M EDTA at pH = 2.5 and physiological pH (7.4) at RT for different time points up to 24 h (Fig. 7). [^64Cu]NOTA-pentixather remained stable over 24 h in human serum (>99% intact ^64Cu-chelate).
Fig. 7 In vitro stability of [^64Cu]NOTA-pentixather as a function of incubation time.
For challenging experiments, 4 MBq of [^64Cu]NOTA-pentixather were incubated in 0.1 M EDTA at different pH values (2.5 and 7.4) for a minimum of 24 h. At specific time points, samples were analyzed via radio-TLC using silica gel impregnated chromatography paper (Agilent Technologies, CA, USA) and 0.1 M phosphate buffer (pH = 7.4) containing 10 mM sodium EDTA as the mobile phase.

In turn, `CN1C(=O)[C@@H](Cc2ccc(O)c(I)c2)NC(=O)CNC(=O)[C@H](Cc2ccc3ccccc3c2)NC(=O)[C@H](CCCNC(=N)N)NC(=O)[C@H]1CCCNC(=O)c1ccc(CNC(=O)CCC(C(=O)O)N2CCN(CC(=O)O)CCN(CC(=O)O)CC2)cc1` (stereo partly shown) [NODAGA-pentixather] (cyclo([2Nal]G[dTyr(3-I)][dNMeOrn]([4Amb-NODAGA])R)) returned an IC50 at human CXCR4 of 0.0649 ± 0.0065 µM.
Take `CN1C(=O)[C@@H](Cc2ccc(O)c(I)c2)NC(=O)CNC(=O)[C@H](Cc2ccc3ccccc3c2)NC(=O)[C@H](CCCNC(=N)N)NC(=O)[C@H]1CCCNC(=O)c1ccc(CNC(=O)CN2CCN(CC(=O)O)CCN(CC(=O)O)CC2)cc1` [[^64Cu]NOTA-pentixather, metal not drawn] (cyclo([dTyr(3-I)][dNMeOrn]([4Amb-NOTA])R[2Nal]G)): the logP in data set [1] was -1.2. Besides, the tissue uptake at 1.5 h in data set [2] (Tumor uptake) turned out to be 13.1 ± 1.5 %ID/g; in data set [2] (accumulation in the intestines) it was 5 ± 2.8 %ID/g; in data set [2] (accumulation in the liver), 7.2 ± 1.1 %ID/g; in data set [2] (activity accumulation in the kidney) it was 3.8 ± 0.5 %ID/g; in data set [2] (activity in blood) it was 1.1 ± 0.2 %ID/g. Further, the “increase of t/blood ratio” value in data set [3] is 1.3 fold. Further, in data set [3], the “increase of t/intestine ratio” value is given as 2.4 fold. Moreover, in data set [4], the tracer remaining intact entry is on record as “over 90%”.

A word on the IC50: it is the point on the concentration scale where inhibition reaches its midpoint. Read a low IC50 as greater potency in that assay. What is called logP is the decadic logarithm of the partition coefficient of the neutral form, usually between octanol and water. Read a low logP as a more hydrophilic compound. A word on the tissue uptake: it is the percentage of the injected dose found per gram of tissue. A higher tissue uptake goes with strong accumulation.
